Target: 5-hydroxytryptamine receptor 2C (Homo sapiens) (UniProt P28335)
Test: Antagonist activity at human 5HT2C receptor expressed in CHO cells assessed as inhibition of 5-HT-stimulated [35S]GTPgamma binding

5-hydroxytryptamine receptor 2C (Homo sapiens), sequence (P28335 whole entry, looked up): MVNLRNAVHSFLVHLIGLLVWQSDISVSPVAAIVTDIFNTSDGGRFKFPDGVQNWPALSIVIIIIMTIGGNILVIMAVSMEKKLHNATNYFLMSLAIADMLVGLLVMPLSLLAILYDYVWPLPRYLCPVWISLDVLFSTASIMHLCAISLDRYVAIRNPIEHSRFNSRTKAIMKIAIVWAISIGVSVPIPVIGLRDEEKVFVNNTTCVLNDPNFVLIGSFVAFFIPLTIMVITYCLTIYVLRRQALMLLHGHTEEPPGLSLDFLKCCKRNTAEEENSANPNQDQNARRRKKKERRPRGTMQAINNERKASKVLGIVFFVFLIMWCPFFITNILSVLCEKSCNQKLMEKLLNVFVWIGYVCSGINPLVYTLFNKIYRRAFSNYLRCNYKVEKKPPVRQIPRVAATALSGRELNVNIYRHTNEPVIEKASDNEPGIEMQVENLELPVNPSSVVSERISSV

`CC(C)N(c1cccc(N2CCN(C)CC2)c1)S(=O)(=O)c1ccc2ccccc2c1` was tested, and the inhibition was “Dose-dependent effect”.
